Consider two molecules from patent US6451973B1, “Anilinopeptide derivatives” (Novatis AG, priority 1996, dated 2002).

Take `CC[C@H](C)[C@H](NC(=O)OC)C(=O)NN(Cc1ccc(N2CCCC2)cc1)C[C@H](O)[C@H](Cc1ccccc1)NC(=O)[C@@H](NC(=O)OC)C(C)(C)C` [Example 9, 1-[p-(Pyrrolidin-1-yl)phenyl]-4(S)-hydroxy-2-[N-(N-methoxycarbonyl-(L)-isoleucyl)amino]-5(S)-[N-(N-methoxycarbonyl-(L)-tert-leucyl)amino]-6-phenyl-2-azahexane]: the melting point was 158 to 161 °C. Consider `COC(=O)N[C@H](C(=O)N[C@@H](Cc1ccccc1)[C@@H](O)CN(Cc1ccc(N2CCCC2)cc1)NC(=O)[C@@H](NC(=O)OC)C(C)(C)C)C(C)C` [Example 11, 1-[p-(Pyrrolidin-1-yl)phenyl]-4(S)-hydroxy-2-[N-(N-methoxycarbonyl-(L)-tert-leucyl)amino]-5(S)-[N-(N-methoxycarbonyl-(L)-valyl)amino]-6-phenyl-2-azahexane], for which the melting point was 118 to 121 °C (dec.).

Usually melting point stands for the temperature, or range, at which the solid turns liquid.
